According to US20220369688A1, “ORAL COMPOSITIONS AND RELATED METHODS FOR REDUCING THROAT IRRITATION” (NICOVENTURES TRADING LIMITED, priority 2021, published 2022):
Read-outs that look alike come from different tables or passages of the source.

Experiments:
[1] = cited from earlier work
[2] = organic acid, octanol/water; cited from earlier work
[3] = 1,000 ppm nicotine, 2 equivalents of octanoic acid (sodium octanoate), pH 6.5
Experimental: A pH probe was submerged in the resulting liquid and HCl (0.05 M) was added under stirring to bring the solution to pH 6.5. The flask weight was then brought up to 100 grams with RO water. […] Partitioning was performed by removing aliquots (10 mL) of each solution and placing into separate 20 ml scintillation vials. Octanol (10 ml) was added to each vial. The vials were then placed on a wrist action shaker for 20 minutes. Following agitation, the vials were allowed to separate for 30 min. and an aliquot (100 μl) of each octanol layer was removed and diluted with 900 μl octanol in 2 mL GC/MS vials.

[4] = 1,000 ppm nicotine, pH 6.5
human buccal tissue = details: nicotine solution at pH=6 relative to pH 8.1; cited from earlier work
[5] = cited from earlier work; remark: listed apart in the source

For `CC(/C=C/C=C(C)/C=C/C(=O)O)=C\C=C\C=C(C)\C=C\C=C(C)\C=C\C(=O)O` (stereo in doubt) [norbixin, (2E,4E,6E,8E,10E,12E,14E,16E,18E)-4,8,13,17-tetramethylicosa-2,4,6,8,10,12,14,16,18-nonaenedioic acid], the solubility in water [1] is listed as “water soluble”.

For `CCCCCCCS(=O)(=O)O` [1-heptanesulfonic acid], the logP [2] is given as 0.88.

With `O=C(O)c1ccccc1` [benzoic acid] the concentration in octanol (1000 ppm nicotine in unbuffered water with 1 molar equivalent of sodium benzoate, 100 μl octanol aliquot diluted in 900 μl) was 19.2 ppm and the “benzoic acid molarity in octanol in terms of nicotine mass” value (1000 ppm nicotine, 1 molar equivalent sodium benzoate) was 25.5 ppm nicotine.

For `COC(=O)/C=C/C(C)=C\C=C\C(C)=C\C=C\C=C(C)\C=C\C=C(C)\C=C\C(=O)O` [bixin, (2E,4E,6E,8E,10E,12E,14E,16Z,18E)-20-methoxy-4,8,13,17-tetramethyl-20-oxoicosa-2,4,6,8,10,12,14,16,18-nonaenoic acid], the solubility in water [1] is listed as “insoluble in water”.

In the case of `CC(=O)CCC(=O)O` [levulinic acid], the logP [2] is given as −0.49.

In the case of `CC(C)[C@@H]1CC[C@@H](C)C[C@H]1OC(=O)CCC(=O)O` [monomenthyl succinate], the logP [2] is given as 3.

With `CN1CCCC1c1cccnc1` (centres unmarked) [nicotine] the “nicotine partitioned into octanol” value [3] was ~67%, the “% nicotine in octanol” value ([4]; 10 eq. benzoic acid (sodium benzoate)) was ~52% and the “% nicotine in octanol” value ([4]; 10 eq. octanoic acid (sodium octanoate)) was ~75%. The “factor by which diffusion rate is reduced” value (human buccal tissue) was ~7, the “log Ka1” value ([5]; pyridine ring nitrogen) was 3.41 and the “log Ka2” value ([5]; pyrrolidine ring nitrogen) was 8.02.

For `CCCCCCCC(=O)O` [octanoic acid], the logP [2] is listed as 3.05.

For `O=C(O)C(O)C(O)C(=O)O` (centres unmarked) [tartaric acid], the logP [2] is listed as −1.9.

In the case of ethyl benzoic acid, the logP [2] is given as 2.9.

For isopropyl benzoic acid, the logP [2] is given as 3.5.
